In the experiment the target is T1, vanilloid receptor 1 (VR1/TRPV1 receptor) (Homo sapiens, UniProt Q8NER1).
T1 construct: expressed in transfected cells; host or cells: CHO K1
The experiment in a line: Functional testing on the vanilloid receptor 1 (FLIPR Ca2+ influx assay, capsaicin). The format is cell-based, human being. Also on record: key to (f) (human being) Cap: effect in words (agonist / no effect): AG=agonist; NE=no effect. As to conditions: for Ki: Cap=capsaicin (100 nM), Ki from IC50 by Cheng-Prusoff equation, read-out: (f) Ki (human being) [nM] Cap; for inhibition at 5 µM / (f) (human being) Cap: effect in words (agonist / no effect): Cap=capsaicin; for inhibition at 5 µM: read-out: inhibition (as a percentage), (f) (human being) Cap. The procedure:
Furthermore, preference may be given to compounds according to the invention that cause a 50 percent displacement of capsaicin, which is present at a concentration of 100 nM, in a FLIPR assay with CHO K1 cells which were transfected with the human VR1 gene at a concentration of less than 2,000 nM, preferably less than 1,000 nM, particularly preferably less than 300 nM, most particularly preferably less than 100 nM, even more preferably less than 75 nM, additionally preferably less than 50 nM, most preferably less than 10 nM.
In the process, the Ca^2+ influx is quantified in the FLIPR assay with the aid of a Ca^2+-sensitive dye (type Fluo-4, Molecular Probes Europe BV, Leiden, the Netherlands) in a fluorescent imaging plate reader (FLIPR, Molecular Devices, Sunnyvale, USA), as described hereinafter.
Pharmacological Methods I. Functional Testing Carried Out on the Vanilloid Receptor 1 (VR1/TRPV1 Receptor) […]
The number of cells in the suspension is set to 3×10^5 per mL and 150 μL of this suspension are in each case introduced into a recess in the cell culture plates coated as described hereinbefore. In the incubator the plates are left for two to three days at 37° C., 5% by volume of CO2 and 95% relative humidity. Subsequently, the cells are loaded with 2 μM of Fluo-4 and 0.01% by volume of Pluronic F127 (Molecular Probes Europe BV, Leiden, the Netherlands) in HBSS buffer (Hank's buffered saline solution, Gibco Invitrogen GmbH, Karlsruhe, Germany) for 30 min at 37° C., washed 3 times with HBSS buffer and after further incubation for 15 minutes at room temperature used for Ca^2+ measurement in a FLIPR assay. The Ca^2+-dependent fluorescence is in this case measured before and after the addition of substances (λex=488 nm, λem=540 nm). Quantification is carried out by measuring the highest fluorescence intensity (FC, fluorescence counts) over time.
The FLIPR protocol consists of 2 substance additions. First the compounds to be tested (10 μM) are pipetted onto the cells and the Ca^2+ influx is compared with the control (capsaicin 10 μM). This provides the result in % activation based on the Ca^2+ signal after the addition of 10 μM of capsaicin (CP). After 5 minutes' incubation, 100 nM of capsaicin are applied and the Ca^2+ influx is also determined.
Desensitising agonists and antagonists lead to suppression of the Ca^2+ influx. The % inhibition is calculated compared to the maximum achievable inhibition with 10 μM of capsazepine. Triple analyses (n=3) are carried out and repeated in at least 3 independent experiments (N=4). Starting from the percentage displacement caused by different concentrations of the compounds to be tested of general formula I, IC50 inhibitory concentrations which cause a 50-percent displacement of capsaicin were calculated. Ki values for the test substances were obtained by conversion by means of the Cheng-Prusoff equation (Cheng, Prusoff; Biochem. Pharmacol. 22, 3099-3108, 1973).
The affinity of the compounds of to the invention for the vanilloid receptor 1 (VR1/TRPV1 receptor) was determined as described hereinbefore (pharmacological method I). The compounds of the invention display outstanding affinity to the VR1/TRPV1 receptor (Table 2). In Table 2 the abbreviations below have the following meanings: • Cap=capsaicin • AG=agonist • NE=no effect
The value after the “@” symbol indicates the concentration at which the inhibition (as a percentage) was respectively determined.

T1 sequence (Q8NER1 whole entry): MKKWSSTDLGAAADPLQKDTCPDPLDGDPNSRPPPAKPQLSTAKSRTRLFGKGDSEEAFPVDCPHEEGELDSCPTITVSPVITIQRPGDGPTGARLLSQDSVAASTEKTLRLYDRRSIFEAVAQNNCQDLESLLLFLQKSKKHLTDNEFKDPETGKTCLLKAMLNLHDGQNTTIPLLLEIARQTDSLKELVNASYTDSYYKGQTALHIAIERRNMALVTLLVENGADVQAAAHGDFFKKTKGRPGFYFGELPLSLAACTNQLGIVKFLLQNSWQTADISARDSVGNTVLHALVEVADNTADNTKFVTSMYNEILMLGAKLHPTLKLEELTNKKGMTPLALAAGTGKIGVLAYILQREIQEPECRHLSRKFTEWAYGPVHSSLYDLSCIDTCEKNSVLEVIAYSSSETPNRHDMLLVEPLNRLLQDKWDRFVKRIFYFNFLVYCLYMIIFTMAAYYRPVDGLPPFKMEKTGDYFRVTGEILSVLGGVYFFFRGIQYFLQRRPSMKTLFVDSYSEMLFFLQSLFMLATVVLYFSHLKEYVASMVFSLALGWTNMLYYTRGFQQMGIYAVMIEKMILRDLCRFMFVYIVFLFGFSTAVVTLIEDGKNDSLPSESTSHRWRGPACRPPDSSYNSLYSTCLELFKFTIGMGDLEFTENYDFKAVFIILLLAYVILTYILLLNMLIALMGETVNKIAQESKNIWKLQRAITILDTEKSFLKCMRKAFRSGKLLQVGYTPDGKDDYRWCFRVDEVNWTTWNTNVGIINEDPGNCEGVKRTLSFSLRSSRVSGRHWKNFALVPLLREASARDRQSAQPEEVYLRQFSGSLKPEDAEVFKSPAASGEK

Regarding “1-(6,7-Dihydro-5H-cyclopenta[b]pyridin-3-yl)-3-((2-(4-methylpiperidin-1-yl)-6-(trifluoromethyl)pyridin-3-yl)methyl)urea [Example 1]”, the Ki (commonly the dissociation constant of the complex between target and ligand, obtained from inhibition or displacement) was 9 nM.
On the same count and under the same terms, next, `CC1CCN(c2nc(C(F)(F)F)ccc2CNC(=O)Nc2cnc3[nH]ncc3c2)CC1` [Example 5, 1-((2-(4-methylpiperidin-1-yl)-6-(trifluoromethyl)pyridin-3-yl)methyl)-3-(1H-pyrazolo[3,4-b]pyridin-5-yl)urea]: 21 nM; `CC1CCN(c2nc(C(F)(F)F)ccc2CNC(=O)C(C)c2ccnc3[nH]ncc23)CC1` (stereo not shown) [Example 8, N-((2-(4-Methylpiperidin-1-yl)-6-(trifluoromethyl)pyridin-3-yl)methyl)-2-(1H-pyrazolo[3,4-b]pyridin-4-yl)propanamide]: 2 nM.
With `CC1CCN(c2nc(C(F)(F)F)ccc2CNC(=O)Nc2ccnc3[nH]ncc23)CC1` [Example 9, 1-((2-(4-Methylpiperidin-1-yl)-6-(trifluoromethyl)pyridin-3-yl)methyl)-3-(1H-pyrazolo[3,4-b]pyridin-4-yl)urea], the inhibition (in general, the drop in the measured response relative to a control, in per cent) at 5 µM was 22%.
`O=C(NCc1ccc(C(F)(F)F)nc1SC1CCCCC1)Nc1ccc2ccccc2n1` [Example 11, 1-((2-(Cyclohexylthio)-6-(trifluoromethyl)pyridin-3-yl)methyl)-3-(quinolin-2-yl)urea]: the inhibition at 5 µM was 19%.
For the compound `CC1CCN(c2nc(C(F)(F)F)ccc2CNC(=O)Nc2cnc3ccccc3c2)CC1` [Example 12, 1-((2-(4-Methylpiperidin-1-yl)-6-(trifluoromethyl)pyridin-3-yl)methyl)-3-(quinolin-3-yl)urea], the Ki stood at 9 nM.
The same measure, in the same setting: next, `CC1CCN(c2nc(C(F)(F)F)ccc2CNC(=O)C(C)c2cnc3ccccc3c2)CC1` (stereo not shown) [Example 14, N-((2-(4-Methylpiperidin-1-yl)-6-(trifluoromethyl)pyridin-3-yl)methyl)-2-(quinolin-3-yl)propanamide]: 44 nM; `CC(C(=O)NCc1ccc(C(F)(F)F)nc1SC1CCCCC1)c1cnc2ccccc2c1` (stereo not shown) [Example 15, N-((2-(Cyclohexylthio)-6-(trifluoromethyl)pyridin-3-yl)methyl)-2-(quinolin-3-yl)propanamide]: 50 nM.
As for `CC1CCN(c2nc(C(F)(F)F)ccc2CNC(=O)Nc2ccnc3ccccc23)CC1` [Example 17, 1-((2-(4-Methylpiperidin-1-yl)-6-(trifluoromethyl)pyridin-3-yl)methyl)-3-(quinolin-4-yl)urea], the “(f) (human being) Cap: effect in words (agonist / no effect)” value is listed as “AG”.
As to `CC1CCN(c2nc(C(F)(F)F)ccc2CNC(=O)Nc2cncc3ccccc23)CC1` [Example 18, 1-(Isoquinolin-4-yl)-3-((2-(4-methylpiperidin-1-yl)-6-(trifluoromethyl)pyridin-3-yl)methyl)urea], the inhibitory constant (Ki) was found to be 2 nM.
On the same count and under the same terms, next, `O=C(NCc1ccc(C(F)(F)F)nc1SC1CCCCC1)Nc1cncc2ccccc12` [Example 19, 1-((2-(Cyclohexylthio)-6-(trifluoromethyl)pyridin-3-yl)methyl)-3-(isoquinolin-4-yl)urea]: 4 nM.
Regarding `CC1CCN(c2nc(C(F)(F)F)ccc2CNC(=O)Nc2nccc3ccccc23)CC1` [Example 20, 1-(Isoquinolin-1-yl)-3-((2-(4-methylpiperidin-1-yl)-6-(trifluoromethyl)pyridin-3-yl)methyl)urea], the “(f) (human being) Cap: effect in words (agonist / no effect)” value was “NE”.
As for `CC1CCN(c2nc(C(F)(F)F)ccc2CNC(=O)Nc2cc3ccccc3cn2)CC1` [Example 21, 1-(Isoquinolin-3-yl)-3-((2-(4-methylpiperidin-1-yl)-6-(trifluoromethyl)pyridin-3-yl)methyl)urea], the inhibition at 5 µM was 39%.
As for `CC1CCN(c2nc(C(F)(F)F)ccc2CNC(=O)Nc2ccc3cc[nH]c3c2)CC1` [Example 22, 1-(1H-Indol-6-yl)-3-((2-(4-methylpiperidin-1-yl)-6-(trifluoromethyl)pyridin-3-yl)methyl)urea], the Ki worked out at 24 nM.
Still for that read-out and setting: next, `CC1CCN(c2nc(C(F)(F)F)ccc2CNC(=O)Nc2ccc3[nH]ccc3c2)CC1` [Example 23, 1-(1H-Indol-5-yl)-3-((2-(4-methylpiperidin-1-yl)-6-(trifluoromethyl)pyridin-3-yl)methyl)urea]: 13 nM.
Same read-out and setting: next, `Cc1cc2cc(NC(=O)NCc3ccc(C(F)(F)F)nc3N3CCC(C)CC3)ccc2[nH]1` [Example 24, 1-(2-Methyl-1H-indol-5-yl)-3-((2-(4-methylpiperidin-1-yl)-6-(trifluoromethyl)pyridin-3-yl)methyl)urea]: 26 nM.
As for `CC1CCN(c2nc(C(F)(F)F)ccc2CNC(=O)Nc2ccc3ncn(C)c3c2)CC1` [Example 26, 1-(1-Methyl-1H-benzo[d]imidazol-6-yl)-3-((2-(4-methylpiperidin-1-yl)-6-(trifluoromethyl)pyridin-3-yl)methyl)urea], the “(f) (human being) Cap: effect in words (agonist / no effect)” value is “AG”.
`CC1CCN(c2nc(C(F)(F)F)ccc2CNC(=O)Nc2ccc3cnn(C)c3c2)CC1` [Example 27, 1-(1-Methyl-1H-indazol-6-yl)-3-((2-(4-methylpiperidin-1-yl)-6-(trifluoromethyl)pyridin-3-yl)methyl)urea]: the Ki is 7 nM.
The same measure, in the same setting: next, `CC1CCN(c2nc(C(F)(F)F)ccc2CNC(=O)Nc2ccc3scnc3c2)CC1` [Example 29, 1-(Benzo[d]thiazol-5-yl)-3-((2-(4-methylpiperidin-1-yl)-6-(trifluoromethyl)pyridin-3-yl)methyl)urea]: 5 nM; `Cc1nc2cc(NC(=O)NCc3ccc(C(F)(F)F)nc3N3CCC(C)CC3)ccc2s1` [Example 30, 1-(2-Methylbenzo[d]thiazol-5-yl)-3-((2-(4-methylpiperidin-1-yl)-6-(trifluoromethyl)pyridin-3-yl)methyl)urea]: 22 nM.
Consider `CC(=O)Nc1nc2cc(NC(=O)NCc3ccc(C(F)(F)F)nc3N3CCC(C)CC3)ccc2s1` [Example 31, N-(5-(3-((2-(4-methylpiperidin-1-yl)-6-(trifluoromethyl)pyridin-3-yl)methyl)ureido)benzo[d]thiazol-2-yl)acetamide], for which the “(f) (human being) Cap: effect in words (agonist / no effect)” value is listed as “AG”.
As to `CC1CCN(c2nc(C(F)(F)F)ccc2CNC(=O)Nc2ccc3ncsc3c2)CC1` [Example 32, 1-(Benzo[d]thiazol-6-yl)-3-((2-(4-methylpiperidin-1-yl)-6-(trifluoromethyl)pyridin-3-yl)methyl)urea], the Ki is 4 nM.
The same measure, in the same setting: next, `Cc1nc2ccc(NC(=O)NCc3ccc(C(F)(F)F)nc3N3CCC(C)CC3)cc2s1` [Example 33, 1-(2-Methylbenzo[d]thiazol-6-yl)-3-((2-(4-methylpiperidin-1-yl)-6-(trifluoromethyl)pyridin-3-yl)methyl)urea]: 4 nM.
On the same count and under the same terms, next, `CC1CCN(c2nc(C(F)(F)F)ccc2CNC(=O)Nc2ccc3nc(N)sc3c2)CC1` [Example 34, 1-(2-Aminobenzo[d]thiazol-6-yl)-3-((2-(4-methylpiperidin-1-yl)-6-(trifluoromethyl)pyridin-3-yl)methyl)urea]: 50 nM.
Turning to `CC(=O)Nc1nc2ccc(NC(=O)NCc3ccc(C(F)(F)F)nc3N3CCC(C)CC3)cc2s1` [Example 35, N-(6-(3-((2-(4-Methylpiperidin-1-yl)-6-(trifluoromethyl)pyridin-3-yl)methyl)ureido)benzo[d]thiazol-2-yl)acetamide], the inhibition at 5 µM came to 47%.

The record behind these values is patent US9029378B2, “Substituted bicyclic aromatic carboxamide and urea compounds as vanilloid receptor ligands” (Gruenenthal GmbH, priority 2011, dated 2015).
